This note sets out measurements from US10080756B2, “Combination methods for treating cancers” (Gilead Sciences, Inc., priority 2014, dated 2018).

The test system of assay [1] is RPMI-8266. Description: Cell Titer Glo viability assay, RPMI-8266. Type of assay: cell-based. As to conditions: RPMI8266; RPMI-8266, MM; single agent; 72 hours; read-out: Inhibition of Viability, EC50. As for the experimental part:
(§1) All procedures were performed at Gilead Sciences, Inc. in Branford, The compound of formula (I), cyclophosphamide, doxorubicin and vincristine sulfate were dissolved in DMSO to prepare stock solutions that were serially diluted three-fold in DMSO in a 96 well plate format at 1000× so the final starting assay concentrations tested would be 10 μM, 200 μM, 10 μM, and 1 μM respectively, for each compound. Compound plates were diluted 1:100 in RPMI without serum or additives creating a 10× stock. Cells were seeded into a 96-well plate at 10,000-20,000 cells per well in 100 μl of growth media appropriate to the cell line supplemented with 100 U/L penicillin-streptomycin. OCI-Ly3, OCI-Ly4 and OCI-Ly7 were grown in Iscove's+20% FBS, OCI-Ly19 was grown in alphaMEM+20% FBS, and all other cell lines were grown in RPMI+10% FBS. To each well, 11 μl of 10× compound was added in a final concentration of 0.1% DMSO and cells were incubated at 37° C. in 5% CO2 for 72 hours. Cell viability was assessed with Cell Titer Glo (Promega, Madison, Wis.) following the manufacturer's protocol on an Envision plate reader (Perkin Elmer, Waltham, Mass.). EC50 values were determined using a four parameter variable slope model with GraphPad Prism 6.0 software. All EC50 values represent mean values of from duplicate dose response curves.

The test system of assay [2] is WSU-FSCCL. Nature of the assay: Cell Titer Glo viability assay, WSU-FSCCL. Type of assay: cell-based. As to conditions: WSU-FSCCL, FL; single agent; 72 hours; read-out: Inhibition of Viability, EC50. As for the experimental part: as §1
Assay [3] concerns OCI-LY7. Nature of the assay: Cell Titer Glo viability assay, OCI-LY7. In kind it is cell-based. As to conditions: Homo sapiens; OCI-LY7, DLBCL; single agent; 72 hours; read-out: Inhibition of Viability, EC50. As for the experimental part:
as §1

Assay [4] concerns SU-DHL-10. Nature of the assay: SU-DHL-10 mouse xenograft model of diffuse large B cell lymphoma, tumor growth. Conditions: for complete or partial regressions (in words): single agents; for partial tumor regressions: treatment alone. Type of assay: in vivo. How it is done:
Entospletinib was evaluated for efficacy in vivo as a single agent and in combination with vincristine in a subcutaneous cell line tumor xenograft model in male SCID beige mice using the human diffuse large B-cell lymphoma cell line, SU-DHL-10 in a 2×2 dose level matrix of Entospletinib and vincristine.
Formulation—Entospletinib was formulated in a complete vehicle of 0.5% HPMC-0.2% Tween 80 (pH 3.5 50 mM acetate buffer, and the lower dose was prepared by direct dilution). The high dose formulation was mixed using a stir bar (and Polytroned briefly as needed to break up clumps of compound) to form a yellow solution (pH=1.8), which became an opaque suspension within 30 minutes. The dosing suspension was prepared fresh daily and stored at 4° C. protected from light between treatments.
The formulation for the highest dose group of vincristine was prepared by diluting the stock solution with 0.9% sterile saline, and the lower dose was prepared by direct dilution of that stock with saline. […] The dosing formulations were prepared just prior to each treatment.
Male Harlan SCID beige mice (C.B-17/IcrHsd-Prkdc^scidLyst^bg-J) were used in this study. They were 6-7 weeks old on Day 1 of the experiment and were fed irradiated Harlan 2918.15 Rodent Diet and water ad libitum. Animals were housed in static cages with Bed-O'Cobs™ bedding (The Andersons Lab Bedding Products) inside Biobubble® Clean Rooms that provide H.E.P.A filtered air into the bubble environment at 100 complete air changes per hour. All treatments, body weight determinations, and tumor measurements were carried out in the bubble environment. The environment was controlled to a temperature range of 70°±2° F. and a humidity range of 30-70%.
SU-DHL-10 cells were obtained from Leibniz Institute DSMZ-German Collection of Microorganisms and Cell Cultures (DSMZ). They were grown in RPMI 1640 medium which was modified with 1% 100 mM Na pyruvate, 1% 1M HEPES buffer, 1% of a 45% glucose solution and supplemented with 10% non-heat-inactivated Fetal Bovine Serum (FBS) and 1% 100× Penicillin/Streptomycin/L-Glutamine (PSG). The growth environment was maintained in an incubator with a 5% CO2 atmosphere at 37° C. The cells were centrifuged at 200 rcf for 8 minutes at 8° C., the supernatant aspirated, and the pellet re-suspended in cold Dulbecco's Phosphate Buffered Saline (DPBS) by pipetting. An aliquot of the homogeneous cell suspension was diluted with a trypan blue solution and counted using a Luna automated cell counter. The pre-implantation cell viability was 91%. The cell suspension was centrifuged at 200 rcf for 8 minutes at 8° C. The supernatant was aspirated and the cell pellet was re-suspended in cold 50% serum-free medium:50% Matrigel® Matrix (Corning) to generate a final concentration of 2.5E+07 cells/ml. The cell suspension was maintained on wet ice during implantation. Following implantation, an aliquot of the remaining cells was diluted with a trypan blue solution and counted to determine the post-implantation cell viability (91%). Test animals were implanted subcutaneously, high in the axilla (just under the fore limb) on Day 0 with 5.0×10^6 cells in 0.2 ml of 50% serum-free medium: 50% Matrigel® Matrix using a 27-gauge needle and syringe.
All mice were sorted into study groups based on tumor burden (estimated from caliper measurements). Efficacy was evaluated by tumor volume/weight monitored during and after treatment. Tumor burden (mg) was measured three times weekly by using caliper measurements and converting to tumor mass by the formula for the volume of a prolate ellipsoid assuming unit density as: Tumor burden (mg)=(L×W^2)/2 • where L and W are the respective orthogonal tumor length and width measurements (mm). The criteria used for a successful distribution in this study was a mean tumor burden for all groups within 10% of the overall mean tumor burden for the study population Treatment began on Day 16 at an overall mean tumor burden of 197 mm^3. […]

Assay [5] concerns OCI-LY19. Description: Cell Titer Glo viability assay, OCI-LY19. In kind it is cell-based. As to conditions: Homo sapiens; OCI-LY19, DLBCL; single agent; 72 hours; read-out: Inhibition of Viability, EC50. How it is done:
as §1

Assay [6] relates to SU-DHL-4. Nature of the assay: Cell Titer Glo viability assay, SU-DHL-4. Conditions: Homo sapiens; SU-DHL-4, DLBCL; single agent; 72 hours; read-out: Inhibition of Viability, EC50. In kind it is cell-based. As for the experimental part: as §1
Assay [7] relates to WSU-NHL. Description: Cell Titer Glo viability assay, WSU-NHL. In kind it is cell-based. Conditions: Homo sapiens, FL, single agent, 72 hours, read-out: Inhibition of Viability, EC50. How it is done: as §1
The subject of assay [8] is MM1.S. Description: Cell Titer Glo viability assay, MM1.S. In kind it is cell-based. Conditions: Homo sapiens, MM, single agent, 72 hours, read-out: Inhibition of Viability, EC50. As for the experimental part:
as §1

The test system of assay [9] is OPM-2. Description: Cell Titer Glo viability assay, OPM-2. Type of assay: cell-based. Conditions: Homo sapiens; OPM-2, MM; single agent; 72 hours; read-out: Inhibition of Viability, EC50. How it is done: as §1

Where only a bound is given, the exact number is not on record here.

For `c1cn2cc(-c3ccc4cn[nH]c4c3)nc(Nc3ccc(N4CCOCC4)cc3)c2n1` [Compound of Formula I, 6-(1H-indazol-6-yl)-N-(4-morpholinophenyl)imidazo[1,2-a]pyrazin-8-amine], the concentration for a half-maximal effect (EC50) in [1], in assay [2], in assay [3], in assay [5], in assay [6] and in assay [7] was more than 3000 nM throughout. Moreover, the EC50 in [8] and in assay [9] was more than 3000 nM in each case. Moreover, the entries for the “Day 31 % Tumor Growth Inhibition” value in [4] (ENTO 25 mg/kg BID + Vehicle for VCR Q7Dx3 (group 3)) and in assay [4] (ENTO 75/50 mg/kg BID + Vehicle for VCR Q7Dx3 (group 2)) were 20% and 39%, respectively. Besides, the “inhibition of tumor growth (in words)” value in assay [4] (Entospletinib dosed alone at 25 or 75/50 mg/kg) is given as “inhibited tumor growth but to a lesser degree than that seen with vincristine”. The “complete or partial regressions (in words)” value in assay [4] was “no complete or partial regressions”. For the same molecule, the partial tumor regressions in assay [4] stood at 0%.
As for `CC[C@]1(O)C[C@H]2CN(CCc3c([nH]c4ccccc34)[C@@](C(=O)OC)(c3cc4c(cc3OC)N(C=O)[C@H]3[C@@](O)(C(=O)OC)[C@H](OC(C)=O)[C@]5(CC)C=CCN6CC[C@]43[C@@H]65)C2)C1` [Vincristine, vincristine], the EC50 in assay [1] came out at 67 nM; in [2], 58 nM; in assay [3] it was 4.6 nM; in assay [5] it was 1.2 nM; in [6], 75 nM; in assay [7], 39 nM. Further, the EC50 in [8] was found to be 59 nM; in assay [9], 97 nM. The “Day 31 % Tumor Growth Inhibition” value turned out to be 42% in [4] (Vehicle for ENTO + VCR 0.15 mg/kg Q7Dx3 (group 5)) and 85% in assay [4] (Vehicle for ENTO + VCR 0.5 mg/kg Q7Dx3 (group 4)). Also, the “complete or partial regressions (in words)” value in [4] is on record as “no complete or partial regressions”. The partial tumor regressions in [4] was determined as 0%. The “inhibition of tumor growth (in words)” value in assay [4] (vincristine at both 0.15 and 0.5 mg/kg) is on record as “significant inhibition of tumor growth”.
